Results as given in patent US20150174283A1, “Smart, Self-Decontaminating Polymer and Method for Inhibiting The Growth Of A Bacteria and Fungus” (priority 2012, published 2015).

What was measured:
[1] = tested on: Staphylococcus aureus; test: S. aureus growth on TSA plates with or without hydroxylamine and polymer foams; format: cell-based; conditions: TSA plates containing 500 uM HA, no polymer, 18 hours, 37 C
Description: The microorganism, Staphylococcus aureus (S. aureus/Staph), was utilized. Staphylococcus aureus is an important bacterium to study and ultimately have the ability to inhibit, as Staphlococcus can cause a number of diseases as a result of infection. The strain Methicillin-resistant Staphylococcus aureus or MRSA is a multi-drug resistant bacterium, making any MRSA infection difficult to treat with standard antibiotics and is thus a more dangerous infection; the number of drug-resistant MRSA cases has increase by 90% over the past decade. MRSA is the most significant infection encountered in hospital settings, costing US hospitals $3.2 to 4.2 billion annually to treat infected patients. Patients with MRSA infections often require longer hospital stays and more time spent in intensive care units. […]

[2] = chlorination of thionin by enzymes in solution (bleaching followed at 598 nm); format: biochemical; conditions: substrate glucose
Description: The chlorinating activity of composite polymers was measured by following the chlorination of a colored substrate (thionin). The thionin is a blue-violet dye that absorbs at 598 nm and undergoes bleaching (to colorless) upon chlorination. A battery of tests were carried out in 100 mM phosphate citrate buffer at pH 4.0. […] The reaction mixture comprised 1.45 mL of the thionin/NaCl solution, 30 μL of the substrate solution (glucose or peroxide), and 25 μL of the enzyme solution (total). Buffer was used to replace the enzyme or substrate in control reactions.

[3] = tested on: host cells; conditions: cited from earlier work

NO [HA, hydroxylamine]
S. aureus growth [1]: does not inhibit the growth | S. aureus growth ([1]; listed as Hydroxylamine): not effected

glucose oxidase
absorbance of thionin at 598 nm, after two minutes ([2]; 20 mM NaCl, pH 4.0): 0.670 | color change of thionin ([2]; thionin/NaCl solution, two minutes): no color change was observed

OO [hydrogen peroxide, Hydrogen peroxide]
concentration toxic to the host cells [3]: > 3%
